Measurements reported in patent publication US20250026748A1, “N-(5-SUBSTITUTED-[(1,3,4-THIADIAZOLYL) OR (THIAZOLYL)])(SUBSTITUTED)CARBOXAMIDE COMPOUNDS AND USE THEREOF FOR INHIBITING HUMAN POLYMERASE THETA” (Repare Therapeutics Inc., priority 2021, published 2025).

Target: PolQ ATPase enzyme (1-894) (Homo sapiens (Human), UniProt O75417)
Experiment: Polθ ATPase enzymatic assay (0.5 nM enzyme concentration), ADP-Glo
Type: biochemical
Settings: average IC50; 0.5 nM PolQ ATPase enzyme (1-894)
Method: PolQ ATPase enzyme (1-894) at 0.5 nM is incubated with a 10-point concentration response of inhibitors for 15 min at rt in the following buffer: 50 mM Tris Cl pH 7.5, 10% glycerol, 5 mM DTT, 10 mM MgCl2, 0.1 mg/ml BSA. Following pre-incubation with inhibitors, DNA (Fork C) at 20 nM and ATP at 100 μM are added to start the reaction. Enzymatic reaction proceeds at rt for 180 min ATP consumption is measured using the ADP-Glo assay from Promega. Luminescence is read on the Envision and IC50 are determined using the variable slope 4-parameters equation.
Oligos are annealed by heating at 9500 for 5 min in the following buffer (10 mM Tris-HCl pH7.5, 50 mM NaCl, 1 mM EDTA) and cooled to rt. […]

PolQ ATPase enzyme (1-894), sequence (O75417 1-894): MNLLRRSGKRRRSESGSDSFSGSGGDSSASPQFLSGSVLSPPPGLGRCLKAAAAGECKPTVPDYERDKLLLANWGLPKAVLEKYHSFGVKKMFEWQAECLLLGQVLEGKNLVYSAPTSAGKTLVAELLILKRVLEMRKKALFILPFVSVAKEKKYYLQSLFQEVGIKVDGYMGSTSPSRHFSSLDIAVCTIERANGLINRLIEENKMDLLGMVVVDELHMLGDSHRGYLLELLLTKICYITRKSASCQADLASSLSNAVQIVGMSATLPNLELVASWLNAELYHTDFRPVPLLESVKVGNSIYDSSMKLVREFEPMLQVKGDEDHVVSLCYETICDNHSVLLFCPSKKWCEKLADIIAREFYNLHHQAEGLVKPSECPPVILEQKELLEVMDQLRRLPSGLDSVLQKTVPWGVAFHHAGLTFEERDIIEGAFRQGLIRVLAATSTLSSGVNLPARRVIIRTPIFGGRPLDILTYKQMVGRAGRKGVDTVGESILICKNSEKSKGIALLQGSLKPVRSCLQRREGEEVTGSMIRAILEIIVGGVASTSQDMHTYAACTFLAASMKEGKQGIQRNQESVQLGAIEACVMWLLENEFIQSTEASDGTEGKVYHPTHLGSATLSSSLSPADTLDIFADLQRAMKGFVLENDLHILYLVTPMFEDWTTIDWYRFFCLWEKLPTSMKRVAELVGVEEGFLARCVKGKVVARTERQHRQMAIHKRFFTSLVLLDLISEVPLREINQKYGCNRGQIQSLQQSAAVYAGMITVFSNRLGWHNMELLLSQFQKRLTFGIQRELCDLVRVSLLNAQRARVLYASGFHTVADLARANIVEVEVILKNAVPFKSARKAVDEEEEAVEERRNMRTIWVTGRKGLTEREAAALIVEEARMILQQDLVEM

Row | Structure (SMILES) | IC50 [nM]
1 | COc1cnc(Cl)cc1-c1cn(C)c(=O)cc1C(=O)Nc1nnc(C#Cc2cc(C)[nH]n2)s1 [Compound 103] | 1.2
2 | COc1cnc(C(F)F)cc1-c1cc(C#CC2(OC)CCOCC2)ccc1C(=O)Nc1nnc(C#CC2CC2)s1 [Compound 246] | 1.1
3 | COc1cnc(Cl)cc1-c1cnccc1C(=O)Nc1nnc(C2C[C@H]2c2ccc(C#N)cc2OC)s1 (stereo partly drawn) [Compound 304] | 13
4 | COc1ccc(C(F)(F)F)nc1-c1cn(CC(=O)N(C)C)c(=O)cc1C(=O)Nc1nnc(C#CC2CC2)s1 [Compound 51] | 2.1
5 | COc1cnc(Cl)cc1-c1cc(-c2ccn(C)n2)ccc1C(=O)Nc1nnc(C#CC2CC2)s1 [Compound 307] | < 0.25
6 | COc1cnc(C(F)F)cc1-c1cc(-c2nnc(C)o2)ccc1C(=O)Nc1nc(C#N)c(C#CC2CC2)s1 [Compound 376] | 3
7 | COc1cnc(C(F)F)cc1-c1cnccc1C(=O)Nc1nnc(C#CC2CC2)s1 [Compound 31, N-(5-(cyclopropylethynyl)-1,3,4-thiadiazol-2-yl)-2′-(difluoromethyl)-5′-methoxy-[3,4′-bipyridine]-4-carboxamide] | 0.63
8 | Cc1cc(C#Cc2nnc(NC(=O)c3cc(=O)n(C)cc3-c3cc(Cl)ncc3OC(F)F)s2)n[nH]1 [Compound 98] | 0.54
9 | COc1ccc(C(F)(F)F)cc1-c1cn(C)c(=O)cc1C(=O)Nc1nnc(C#CC2CCOCC2)s1 [Compound 337] | 9.2
10 | COc1cnc(C(F)F)cc1-c1cc(N(C)C(=O)C2(C)COC2)ccc1C(=O)Nc1nnc(C#CC2CC2)s1 [Compound 220] | 0.78
11 | COc1cnc(C(F)F)cc1-c1cnccc1C(=O)Nc1nnc([C@@H]2C[C@H]2c2ccc(C#N)cc2)s1 [Compound 274] | 0.51
12 | [2H]C([2H])([2H])N(C(=O)C1CCOC1)c1ccc(C(=O)Nc2nnc(C#CC3CC3)s2)c(-c2cc(C(F)F)ncc2OC)c1 (stereo not drawn) [Compound 229] | 1.4
13 | COc1cnc(C(F)F)cc1-c1cc(C#Cc2cn[nH]c2)ncc1C(=O)Nc1nnc(C#CC2CC2)s1 [Compound 196] | < 0.25
14 | Cc1nc(Cn2cc(-c3cc(C(F)(F)F)ccc3Cl)c(C(=O)Nc3nnc(C#CC4CC4)s3)cc2=O)cs1 [Compound 331] | 24
15 | COc1cnc(C(F)F)cc1-c1nc(-c2nnc(C)o2)ccc1C(=O)Nc1nnc(C#CC2CC2)s1 [Compound 391] | > 100
16 | COc1cnc(C(F)F)cc1-c1cc(-c2nnc(NC(C)=O)o2)ccc1C(=O)Nc1nnc(C#CC2CC2)s1 [Compound 418] | 1.6
17 | COc1cnc(Cl)cc1-c1cn(CC(=O)N2CCOCC2)c(=O)cc1C(=O)Nc1nnc(C#CC2CC2)s1 [Compound 347] | 3.4
18 | COc1cnc(C(F)(F)F)cc1-c1cnccc1C(=O)Nc1nnc(C#CC2CC2)s1 [Compound 91] | 2.3
19 | COc1cnc(C(F)F)cc1-c1cc(C#CCN(C)C)ccc1C(=O)Nc1nnc(C#CC2CC2)s1 [Compound 236] | 0.56
20 | [2H]C([2H])([2H])Oc1cnc(C(F)F)cc1-c1cc(-c2nnc(C)o2)ccc1C(=O)Nc1nnc(C#CC2CC2)s1 [Compound 406] | 2.8
21 | COc1cnc(Cl)cc1-c1cn2ncnc2cc1C(=O)Nc1nnc(C#CC2CC23CC3)s1 (stereo not drawn) [Compound 64] | 1.9
22 | COc1cnc(C(F)F)cc1-c1cc(-c2ccn(C)n2)ccc1C(=O)Nc1nnc(C#CC2CC2)s1 [Compound 280] | < 0.25
23 | COc1cnc(C2CC2)cc1-c1cnccc1C(=O)Nc1nnc(C#CC2CC2)s1 [Compound 79] | 1.21
24 | COc1cnc(C(F)F)cc1-c1cc(N2CC3(COC3)CC2=O)ncc1C(=O)Nc1nnc(C#CC2CC2)s1 [Compound 359] | 1.7
25 | COc1cnc(C(F)F)cc1-c1cc(N2CCCCC2=O)ccc1C(=O)Nc1ncc(C#CC2CC2)s1 [Compound 209] | 0.67
26 | COc1cnc(Cl)cc1-c1cn(Cc2csc(C)n2)c(=O)cc1C(=O)Nc1nnc(C#CC2CC2)s1 [Compound 332] | 15
27 | COc1cnc(C(F)F)cc1-c1cc(OC[C@H]2CCCO2)ncc1C(=O)Nc1nnc(C#CC2CC2)s1 [Compound 186] | 0.79
28 | COc1cnc(C(F)F)cc1-c1cc(N2CCCC2=O)ncc1C(=O)Nc1nnc(C#CC2CC2)s1 [Compound 285] | 4.3

Next, values leading:

Row | IC50 [nM] | Structure (SMILES)
29 | 0.37 | COc1cnc(C(F)F)cc1-c1cc(-c2ccn(C)n2)c(F)cc1C(=O)Nc1nnc(C#CC2CC2)s1 [Compound 457]
30 | < 0.25 | COc1cnc(Cl)nc1-c1cc(CC#N)ccc1C(=O)Nc1nnc(C#CC2CC2)s1 [Compound 407]
31 | < 0.25 | COc1cnc(C(F)F)cc1-c1cc(-n2c(F)cccc2=O)ncc1C(=O)Nc1nnc(C#CC2CC2)s1 [Compound 461]
32 | 0.31 | COc1cnc(C(F)F)cc1-c1cc(-c2cnc(C)o2)ncc1C(=O)Nc1nnc(C#CC2CC2)s1 [Compound 410]
33 | < 0.25 | CNC(=O)Cn1cc(-c2cc(C(F)(F)F)ccc2OC)c(C(=O)Nc2nnc(C#Cc3cc(C)[nH]n3)s2)cc1=O [Compound 82]
34 | < 0.25 | COc1cnc(C(F)F)cc1-c1cc(-n2ccc(C)c(C)c2=O)ncc1C(=O)Nc1nnc(C#CC2CC2)s1 [Compound 467]
35 | 0.31 | COc1cnc(C(F)F)cc1-c1cc(CC(=O)N(C)C)ccc1C(=O)Nc1ncc(C#CC2CC2)s1 [Compound 215]
36 | < 0.25 | O=C(Nc1nnc(C#CC2CC2)s1)c1cnc(-n2ccccc2=O)cc1-c1cc(C(F)F)ncc1Cl [Compound 403]
37 | < 0.25 | COc1cnc(C(F)F)cc1-c1cc(N2CC3CC(C3)C2=O)ncc1C(=O)Nc1nnc(C#CC2CC2)s1 [Compound 381]
38 | < 0.25 | COc1cnc(C(F)F)cc1-c1cc(N(C)C(C)=O)ccc1C(=O)Nc1nnc(C#CC2CC2)s1 [Compound 276]
39 | < 0.25 | COc1cnc(C(F)F)cc1-c1cc(C#CCN2CCOC[C@H]2C)ncc1C(=O)Nc1nnc(C#CC2CC2)s1 [Compound 189]
40 | 0.36 | COc1cnc(Cl)cc1-c1cnccc1C(=O)Nc1nnc(C2CC2c2ccc(OC(F)F)cc2)s1 (stereo not drawn) [Compound 62]
41 | < 0.25 | COc1cnc(C(F)F)cc1-c1cc(-n2cccc(Cl)c2=O)ncc1C(=O)Nc1nnc(C#CC2CC2)s1 [Compound 455]
42 | 0.27 | COc1cnc(C(F)F)cc1-c1cc(-c2nnc(C)o2)ncc1C(=O)Nc1nnc(C#CC2CC2)s1 [Compound 354]
43 | 0.46 | COc1cnc(C(F)F)cc1-c1cc(N2C(=O)COCC2C)ncc1C(=O)Nc1nnc(C#CC2CC2)s1 (stereo not drawn) [Compound 400]
44 | 0.36 | COc1ccc(C(F)F)cc1-c1cn(CC(N)=O)c(=O)cc1C(=O)Nc1nnc(C#CC2CC2)s1 [Compound 87]
45 | < 0.25 | COc1cnc(C(F)F)cc1-c1cc(-c2nnc(C)o2)ccc1C(=O)Nc1nnc(C#Cc2cc(C)[nH]n2)s1 [Compound 153]
46 | 0.0492 | Cc1cnn(-c2cc(-c3cc(C(F)F)ncc3Cl)c(C(=O)Nc3nnc(C#CC4CC4)s3)cn2)c(=O)c1 [Compound 470]

Row | IC50 [nM] | Structure (SMILES)
47 | < 0.25 | COc1cnc(C(F)F)cc1-c1cc(C#CC2(C(=O)N(C)C)CC2)ncc1C(=O)Nc1nnc(C#CC2CC2)s1 [Compound 211]
48 | < 0.25 | COc1cnc(C(F)F)cc1-c1cc(CC(=O)N(C)C)ncc1C(=O)Nc1nnc(C#CC2CC2)s1 [Compound 245]
49 | < 0.25 | COc1cnc(C(F)F)cc1-c1cc(N2CCC(C)CC2=O)ncc1C(=O)Nc1nnc(C#CC2CC2)s1 (stereo not drawn) [Compound 141]
50 | < 0.25 | COc1cnc(C(F)F)cc1-c1cc(C#CC2(C)CCCO2)ncc1C(=O)Nc1nnc(C#CC2CC2)s1 (stereo not drawn) [Compound 151]
51 | 0.29 | CN(C)C(=O)Cn1cc(-c2cc(C(F)(F)F)ccc2Cl)c(C(=O)Nc2nnc(C#CC3CC3)s2)cc1=O [Compound 34, 5-(2-chloro-5-(trifluoromethyl)phenyl)-N-(5-(cyclopropylethynyl)-1,3,4-thiadiazol-2-yl)-1-(2-(dimethylamino)-2-oxoethyl)-2-oxo-1,2-dihydropyridine-4-carboxamide]
52 | < 0.25 | COc1cnc(C(F)F)cc1-c1cc(N2CCNCC2=O)ccc1C(=O)Nc1nnc(C#CC2CC2)s1 [Compound 143]
53 | < 0.25 | COc1cnc(C(F)F)cc1-c1cc(N2CCOC3(CC3)C2=O)ncc1C(=O)Nc1nnc(C#CC2CC2)s1 [Compound 158]
54 | < 0.25 | COc1cnc(C(F)F)cc1-c1cc(N2CCCOC2=O)ncc1C(=O)Nc1nnc(C#CC2CC2)s1 [Compound 167]
55 | < 0.25 | COc1cnc(C(F)F)cc1-c1cc(N2CCOCC2=O)ccc1C(=O)Nc1ncc(C#CC2CC2)s1 [Compound 213]
56 | < 0.25 | COc1cnc(C(F)F)cc1-c1cc(N2CCN(C(C)=O)CC2=O)ncc1C(=O)Nc1nnc(C#CC2CC2)s1 [Compound 357]
57 | < 0.25 | COc1cnc(C(F)F)cc1-c1cc(N2CCn3cncc3C2=O)ncc1C(=O)Nc1nnc(C#CC2CC2)s1 [Compound 356]
58 | 0.39 | C#C[C@@H]1C[C@H]1c1nnc(NC(=O)c2ccc(N3CCOCC3=O)cc2-c2cc(C(F)F)ncc2OC)s1 [Compound 177]
59 | 0.36 | COc1cnc(Cl)cc1-c1cnccc1C(=O)Nc1nnc(C#Cc2cc(C)[nH]n2)s1 [Compound 28, 3-(2-chloro-5-methoxy-4-pyridyl)-N-[5-[2-(5-methyl-1H-pyrazol-3-yl)ethynyl]-1,3,4-thiadiazol-2-yl]pyridine-4-carboxamide]
60 | 0.37 | COc1cnc(C(F)F)cc1-c1cc(OC[C@H]2CCOC2)ncc1C(=O)Nc1nnc(C#CC2CC2)s1 [Compound 149]
61 | < 0.25 | COC(=O)N1CCN(c2cc(-c3cc(C(F)F)ncc3OC)c(C(=O)Nc3nnc(C#CC4CC4)s3)cn2)C(=O)C1 [Compound 358]
62 | < 0.25 | COc1cnc(C(F)F)cc1-c1cc(C#CC2(O)CCS(=O)(=O)CC2)ccc1C(=O)Nc1nnc(C#CC2CC2)s1 [Compound 264]
63 | < 0.25 | COc1ccc(C(F)(F)F)cc1-c1cn(CC(=O)N(C)C)c(=O)cc1C(=O)Nc1nnc(C#Cc2cc(C)[nH]n2)s1 [Compound 81]
